These results are taken from patent US20030100757A1, “2-(4-aryl or heteroaryl-piperazin-1-ylmethyl)-1H-indole derivatives interacting with the dopamine D4 receptor” (Pfizer Inc., priority 2001, published 2003).

As usually defined, the melting point is the temperature, or range, at which the solid turns liquid. `O=[N+]([O-])c1ccccc1N1CCN(Cc2cc3cc(F)ccc3[nH]2)CC1` [Example 13, 5-Fluoro-2-[4-(2-nitro-phenyl)-piperazin-1-ylmethyl]-1H-indole] yielded a melting point of 236 °C.
`c1ccc2[nH]c(CN3CCN(c4nsc5ccccc45)CC3)cc2c1` [Example 9, 3-[4-(1H-Indol-2-ylmethyl)-piperazin-1-yl]-benzo[d]isothiazole] displayed a melting point of 150 to 152 °C.
The result for `Oc1ccc2[nH]c(CN3CCN(c4cccc(C(F)(F)F)c4)CC3)cc2c1` [Example 4, 2-[4-(3-Trifluoromethyl-phenyl)-piperazin-1-ylmethyl]-1H-indol-5-ol] reads 188 to 190 °C; that for `Fc1ccc2[nH]c(CN3CCN(c4cccc(C(F)(F)F)c4)CC3)cc2c1` [Example 10, 5-Fluoro-2-[4-(3-trifluoromethyl-phenyl)-piperazin-1-ylmethyl]-1H-indole], 196 to 197 °C.
For `Fc1ccc2[nH]c(CN3CCN(c4ncccn4)CC3)cc2c1` [Example 17, 5-Fluoro-2-(4-pyrimidin-2-yl-piperazin-1-ylmethyl)-1H-indole], the melting point came out at 199 °C.
The molecule `O=[N+]([O-])c1ccccc1N1CCN(Cc2cc3ccccc3[nH]2)CC1` [Example 12, 2-[4-(2-Nitro-phenyl)-piperazin-1-ylmethyl]-1H-indole] came in with a melting point of 210 to 211 °C.
The same measure for `c1ccc2[nH]c(CN3CCN(c4cccc5ccccc45)CC3)cc2c1` [Example 11, 2-(4-Naphthalen-1-yl-piperazin-1-ylmethyl)-1H-indole]: 238 to 239 °C; for `O=C(c1cc2cc(F)ccc2[nH]1)N1CCN(c2cccc(C(F)(F)F)c2)CC1` [Example 8, (5-Fluoro-1H-indol-2-yl)-[4-(3-trifluoromethyl-phenyl)-piperazin-1-yl]-methanone]: 198 °C; for `Fc1ccc2[nH]c(CN3CCN(c4cccc5ccccc45)CC3)cc2c1` [Example 14, 5-Fluoro-2-(4-naphthalen-1-yl-piperazin-1-ylmethyl)-1H-indole]: 249 to 250 °C.
As to `FC(F)(F)c1cccc(N2CCN(Cc3cc4ccccc4[nH]3)CC2)c1` [Example 5, 2-[4-(3-Trifluoromethyl-phenyl)-piperazin-1-ylmethyl]-1 H-indole], the melting point was in the range of 192 to 194 °C.
The same measure for `O=C(c1cc2cc(F)ccc2[nH]1)N1CCN(c2ccccn2)CC1` [Example 18, (5-Fluoro-1H-indol-2-yl)-(4-pyridin-2-yl-piperazin-1-yl)-methanone]: 214 to 218 °C; for `O=C(c1cc2cc(F)ccc2[nH]1)N1CCN(c2ccccc2[N+](=O)[O-])CC1` [Example 7, (5-Fluoro-1H-indol-2-yl)-[4-(2-nitro-phenyl)-piperazin-1-yl]-methanone]: 184 to 188 °C.
